One block for each molecule: values may come before it.
Assays:
[1] = organism: Canis familiaris; experiment: Ability to block B-HT 920-induced contraction in canine saphenous vein.; assay type: functional; details: Canis lupus familiaris
[2] = organism: Cavia porcellus; experiment: Ability to block B-HT 920-induced inhibition of inotropic response to field stimulation in superfused guinea pig atrium; assay type: functional; details: Cardiac atrium
[3] = organism: Oryctolagus cuniculus; experiment: Ability to block norepinephrine-induced contraction in rabbit aorta.; assay type: functional
[4] = target: T1, Alpha-1D adrenergic receptor (Homo sapiens, UniProt P25100); experiment: biochemical
T1 sequence (P25100 whole entry): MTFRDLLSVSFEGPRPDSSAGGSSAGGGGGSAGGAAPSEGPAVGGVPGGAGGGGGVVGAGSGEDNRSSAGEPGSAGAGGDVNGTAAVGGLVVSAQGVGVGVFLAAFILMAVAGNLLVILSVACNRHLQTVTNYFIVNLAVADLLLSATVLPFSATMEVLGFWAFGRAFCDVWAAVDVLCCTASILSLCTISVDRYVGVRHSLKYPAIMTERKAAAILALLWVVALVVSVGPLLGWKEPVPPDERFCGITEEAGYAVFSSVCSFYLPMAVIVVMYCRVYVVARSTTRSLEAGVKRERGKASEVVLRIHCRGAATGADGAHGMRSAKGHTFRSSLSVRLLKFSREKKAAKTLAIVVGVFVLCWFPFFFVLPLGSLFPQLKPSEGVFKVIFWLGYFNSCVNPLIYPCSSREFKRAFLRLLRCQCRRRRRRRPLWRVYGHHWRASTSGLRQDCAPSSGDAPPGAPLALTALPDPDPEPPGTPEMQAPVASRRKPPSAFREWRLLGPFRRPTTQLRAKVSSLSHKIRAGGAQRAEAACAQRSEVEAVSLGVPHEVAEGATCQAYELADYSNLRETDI
Description: Inhibition of [3H]prazosin binding to human Alpha-1D adrenergic receptor expressed in CHO cells

[5] = target: T2, Alpha-1A adrenergic receptor (Homo sapiens, UniProt P35348); experiment: biochemical
T2 sequence (P35348 whole entry): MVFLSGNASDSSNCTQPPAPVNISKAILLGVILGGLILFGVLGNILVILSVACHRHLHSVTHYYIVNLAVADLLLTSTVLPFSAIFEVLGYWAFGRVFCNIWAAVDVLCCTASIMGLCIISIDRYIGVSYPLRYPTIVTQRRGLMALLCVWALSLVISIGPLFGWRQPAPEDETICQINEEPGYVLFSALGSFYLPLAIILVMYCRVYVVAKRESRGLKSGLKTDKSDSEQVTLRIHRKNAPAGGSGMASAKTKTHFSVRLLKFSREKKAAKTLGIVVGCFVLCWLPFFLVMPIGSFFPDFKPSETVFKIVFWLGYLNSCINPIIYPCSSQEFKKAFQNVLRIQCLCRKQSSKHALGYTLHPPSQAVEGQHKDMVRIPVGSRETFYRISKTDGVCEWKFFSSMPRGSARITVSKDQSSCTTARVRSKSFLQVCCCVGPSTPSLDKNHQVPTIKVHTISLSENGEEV
Description: Inhibition of [3H]prazosin binding to human Alpha-1A adrenergic receptor expressed in CHO cells

[6] = target: T3, Alpha-1B adrenergic receptor (Homo sapiens, UniProt P35368); experiment: biochemical
T3 sequence (P35368 whole entry): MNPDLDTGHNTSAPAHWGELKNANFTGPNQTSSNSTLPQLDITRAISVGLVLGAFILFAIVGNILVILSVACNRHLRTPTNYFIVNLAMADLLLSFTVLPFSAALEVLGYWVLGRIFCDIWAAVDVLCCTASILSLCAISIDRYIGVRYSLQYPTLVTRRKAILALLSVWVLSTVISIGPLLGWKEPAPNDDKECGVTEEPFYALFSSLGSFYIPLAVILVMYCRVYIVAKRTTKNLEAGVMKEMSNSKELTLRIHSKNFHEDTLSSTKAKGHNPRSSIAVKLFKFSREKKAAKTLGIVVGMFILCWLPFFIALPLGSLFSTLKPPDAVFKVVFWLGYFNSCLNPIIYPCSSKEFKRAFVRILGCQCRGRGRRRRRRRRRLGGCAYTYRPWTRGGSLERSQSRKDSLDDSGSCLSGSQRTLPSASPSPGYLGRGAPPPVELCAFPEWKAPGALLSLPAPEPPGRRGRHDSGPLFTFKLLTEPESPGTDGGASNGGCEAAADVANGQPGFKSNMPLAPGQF
Description: Inhibition of [3H]prazosin binding to human Alpha-1B adrenergic receptor expressed in CHO cells

[7] = target: T4, Alpha-2B adrenergic receptor (Homo sapiens, UniProt P18089); experiment: biochemical; assay type: cell-based, CHO
T4 sequence (P18089 whole entry): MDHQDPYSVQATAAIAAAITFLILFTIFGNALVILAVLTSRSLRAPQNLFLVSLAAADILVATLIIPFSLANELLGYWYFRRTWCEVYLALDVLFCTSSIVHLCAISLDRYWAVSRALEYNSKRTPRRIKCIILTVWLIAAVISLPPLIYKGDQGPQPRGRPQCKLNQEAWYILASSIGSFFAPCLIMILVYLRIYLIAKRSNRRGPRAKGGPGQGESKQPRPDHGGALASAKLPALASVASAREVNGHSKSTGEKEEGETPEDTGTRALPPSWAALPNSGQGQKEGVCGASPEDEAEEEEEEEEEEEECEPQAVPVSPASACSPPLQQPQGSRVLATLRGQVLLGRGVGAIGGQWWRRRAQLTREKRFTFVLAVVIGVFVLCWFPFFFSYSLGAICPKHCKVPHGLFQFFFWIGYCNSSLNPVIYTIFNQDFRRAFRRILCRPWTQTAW

[8] = target: T5, Alpha-2A adrenergic receptor (Homo sapiens, UniProt P08913); experiment: biochemical
T5 sequence (P08913 whole entry): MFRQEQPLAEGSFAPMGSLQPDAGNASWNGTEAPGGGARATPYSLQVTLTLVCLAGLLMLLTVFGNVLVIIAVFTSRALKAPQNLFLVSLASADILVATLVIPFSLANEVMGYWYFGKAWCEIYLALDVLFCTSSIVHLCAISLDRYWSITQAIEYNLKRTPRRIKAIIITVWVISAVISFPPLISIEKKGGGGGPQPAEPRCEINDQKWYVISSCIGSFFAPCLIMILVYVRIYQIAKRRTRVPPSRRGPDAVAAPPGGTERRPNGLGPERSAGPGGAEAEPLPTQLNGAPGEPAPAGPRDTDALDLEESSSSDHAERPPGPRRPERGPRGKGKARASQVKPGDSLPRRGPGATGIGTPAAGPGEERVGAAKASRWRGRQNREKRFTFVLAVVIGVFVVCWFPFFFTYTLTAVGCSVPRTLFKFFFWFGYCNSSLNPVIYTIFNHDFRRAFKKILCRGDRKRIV

[9] = target: T6, Alpha-2C adrenergic receptor (Homo sapiens, UniProt P18825); experiment: biochemical
T6 sequence (P18825 whole entry): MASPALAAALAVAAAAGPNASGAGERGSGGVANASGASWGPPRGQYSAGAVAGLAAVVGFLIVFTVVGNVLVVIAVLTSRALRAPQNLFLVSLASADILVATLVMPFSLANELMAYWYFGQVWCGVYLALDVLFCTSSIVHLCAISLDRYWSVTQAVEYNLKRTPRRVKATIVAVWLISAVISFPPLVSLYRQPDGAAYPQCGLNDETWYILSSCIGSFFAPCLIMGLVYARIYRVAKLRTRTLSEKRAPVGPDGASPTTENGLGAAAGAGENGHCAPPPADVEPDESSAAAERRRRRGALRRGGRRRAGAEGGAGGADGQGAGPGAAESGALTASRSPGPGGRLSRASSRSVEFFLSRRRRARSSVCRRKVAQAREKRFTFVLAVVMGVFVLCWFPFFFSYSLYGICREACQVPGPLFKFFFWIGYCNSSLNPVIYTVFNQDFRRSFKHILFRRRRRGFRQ

[10] = target: Voltage-dependent L-type calcium channel subunit alpha-1C (Rattus norvegicus, UniProt P22002); experiment: biochemical
Description: Inhibition of [3H]nitrendipine binding to membrane homogenates of rat cardiac muscle.

[11] = target: Beta-2 adrenergic receptor (Cavia porcellus, UniProt Q8K4Z4); experiment: Effective dose for relaxation of guinea pig trachea.
[12] = target: Beta-1 adrenergic receptor (Cavia porcellus, UniProt B0FL73); experiment: Effective dose required to stimulate contractions in isolated guinea pig atrium.; assay type: functional, tissue-based, Cardiac atrium
[13] = target: T7, Monoamine oxidase (Homo sapiens, UniProt P21397+P27338); experiment: Binding affinity for imidazoline receptor I-2; assay type: protein assay
T7 sequence (P21397 whole entry): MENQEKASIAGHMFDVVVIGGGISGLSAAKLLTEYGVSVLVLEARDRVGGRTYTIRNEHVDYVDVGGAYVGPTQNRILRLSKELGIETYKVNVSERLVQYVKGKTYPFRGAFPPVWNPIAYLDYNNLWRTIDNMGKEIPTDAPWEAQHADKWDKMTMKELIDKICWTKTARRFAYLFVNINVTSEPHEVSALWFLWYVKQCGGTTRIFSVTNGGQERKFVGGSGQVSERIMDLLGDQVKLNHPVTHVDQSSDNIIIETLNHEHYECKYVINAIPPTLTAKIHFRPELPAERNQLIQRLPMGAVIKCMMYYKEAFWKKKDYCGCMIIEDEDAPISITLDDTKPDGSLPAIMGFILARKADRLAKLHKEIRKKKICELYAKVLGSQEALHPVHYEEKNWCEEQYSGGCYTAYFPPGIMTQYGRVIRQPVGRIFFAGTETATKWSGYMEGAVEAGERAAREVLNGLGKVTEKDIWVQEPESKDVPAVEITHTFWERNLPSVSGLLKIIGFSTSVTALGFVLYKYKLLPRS
T7 sequence (P27338 whole entry): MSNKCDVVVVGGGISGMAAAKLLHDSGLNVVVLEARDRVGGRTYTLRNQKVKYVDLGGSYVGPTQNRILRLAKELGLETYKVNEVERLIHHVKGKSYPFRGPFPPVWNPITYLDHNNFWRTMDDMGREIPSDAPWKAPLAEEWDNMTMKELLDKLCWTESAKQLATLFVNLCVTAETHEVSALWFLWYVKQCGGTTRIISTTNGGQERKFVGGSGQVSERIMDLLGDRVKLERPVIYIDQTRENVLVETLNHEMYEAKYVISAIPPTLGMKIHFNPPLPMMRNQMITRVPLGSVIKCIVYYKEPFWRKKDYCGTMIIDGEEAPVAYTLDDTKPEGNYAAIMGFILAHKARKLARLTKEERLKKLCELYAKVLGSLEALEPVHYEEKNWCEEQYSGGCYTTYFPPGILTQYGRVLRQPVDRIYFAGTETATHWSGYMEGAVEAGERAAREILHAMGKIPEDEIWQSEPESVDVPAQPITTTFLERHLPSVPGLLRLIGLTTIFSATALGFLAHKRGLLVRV

Chain of Voltage-dependent L-type calcium channel subunit alpha-1C (P22002 whole entry): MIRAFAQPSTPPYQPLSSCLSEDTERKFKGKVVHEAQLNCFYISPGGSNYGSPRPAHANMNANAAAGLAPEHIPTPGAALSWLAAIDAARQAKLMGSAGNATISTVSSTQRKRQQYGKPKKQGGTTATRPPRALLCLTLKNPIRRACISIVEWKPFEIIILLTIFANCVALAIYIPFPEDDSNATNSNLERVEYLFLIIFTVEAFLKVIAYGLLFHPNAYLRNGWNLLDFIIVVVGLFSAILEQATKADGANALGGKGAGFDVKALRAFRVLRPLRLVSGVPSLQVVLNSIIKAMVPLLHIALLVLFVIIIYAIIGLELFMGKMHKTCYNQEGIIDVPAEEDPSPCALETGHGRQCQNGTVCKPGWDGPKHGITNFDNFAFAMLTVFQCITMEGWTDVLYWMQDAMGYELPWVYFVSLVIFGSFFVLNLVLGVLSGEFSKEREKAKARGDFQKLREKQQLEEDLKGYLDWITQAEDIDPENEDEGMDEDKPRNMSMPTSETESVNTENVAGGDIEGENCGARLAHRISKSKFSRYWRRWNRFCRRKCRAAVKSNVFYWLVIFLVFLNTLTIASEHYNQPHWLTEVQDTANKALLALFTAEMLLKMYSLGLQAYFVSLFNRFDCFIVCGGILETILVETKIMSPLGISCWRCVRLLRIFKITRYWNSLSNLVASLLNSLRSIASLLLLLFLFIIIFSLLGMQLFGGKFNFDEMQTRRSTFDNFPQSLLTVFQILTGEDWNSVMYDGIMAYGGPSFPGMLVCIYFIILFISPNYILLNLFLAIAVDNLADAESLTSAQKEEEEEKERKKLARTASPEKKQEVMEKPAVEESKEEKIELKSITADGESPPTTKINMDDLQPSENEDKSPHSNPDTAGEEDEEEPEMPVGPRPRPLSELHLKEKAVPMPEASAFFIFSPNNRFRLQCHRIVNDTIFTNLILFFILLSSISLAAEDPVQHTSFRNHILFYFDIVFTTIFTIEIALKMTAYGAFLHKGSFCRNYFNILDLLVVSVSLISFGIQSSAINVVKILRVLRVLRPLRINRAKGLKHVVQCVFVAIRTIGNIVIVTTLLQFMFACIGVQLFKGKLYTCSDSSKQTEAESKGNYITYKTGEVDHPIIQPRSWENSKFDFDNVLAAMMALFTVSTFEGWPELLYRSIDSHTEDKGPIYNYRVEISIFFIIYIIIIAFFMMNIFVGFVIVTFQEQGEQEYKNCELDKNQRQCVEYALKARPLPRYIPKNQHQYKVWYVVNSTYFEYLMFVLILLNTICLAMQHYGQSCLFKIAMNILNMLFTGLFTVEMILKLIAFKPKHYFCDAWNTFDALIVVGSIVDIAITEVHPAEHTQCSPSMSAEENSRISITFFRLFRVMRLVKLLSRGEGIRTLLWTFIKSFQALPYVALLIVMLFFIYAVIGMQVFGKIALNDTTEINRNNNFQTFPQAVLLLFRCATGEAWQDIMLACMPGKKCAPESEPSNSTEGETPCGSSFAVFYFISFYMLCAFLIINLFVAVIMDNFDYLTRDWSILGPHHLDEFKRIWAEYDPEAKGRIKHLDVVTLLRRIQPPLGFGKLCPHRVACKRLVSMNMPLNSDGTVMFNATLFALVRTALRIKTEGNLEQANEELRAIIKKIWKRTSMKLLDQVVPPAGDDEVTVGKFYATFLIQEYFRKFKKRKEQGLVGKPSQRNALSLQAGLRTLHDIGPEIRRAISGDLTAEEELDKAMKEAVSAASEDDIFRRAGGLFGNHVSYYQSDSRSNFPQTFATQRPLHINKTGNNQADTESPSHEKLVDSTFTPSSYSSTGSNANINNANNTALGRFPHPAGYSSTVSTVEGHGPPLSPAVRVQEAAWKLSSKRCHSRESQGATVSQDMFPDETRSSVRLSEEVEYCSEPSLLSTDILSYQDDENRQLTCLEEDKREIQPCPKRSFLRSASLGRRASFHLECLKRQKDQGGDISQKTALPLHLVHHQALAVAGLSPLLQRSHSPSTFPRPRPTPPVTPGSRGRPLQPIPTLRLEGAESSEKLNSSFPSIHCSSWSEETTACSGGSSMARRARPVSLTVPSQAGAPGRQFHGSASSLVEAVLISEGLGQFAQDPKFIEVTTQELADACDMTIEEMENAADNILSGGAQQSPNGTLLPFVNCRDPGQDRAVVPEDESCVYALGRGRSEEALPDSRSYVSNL
Chain of Beta-2 adrenergic receptor (Q8K4Z4 whole entry): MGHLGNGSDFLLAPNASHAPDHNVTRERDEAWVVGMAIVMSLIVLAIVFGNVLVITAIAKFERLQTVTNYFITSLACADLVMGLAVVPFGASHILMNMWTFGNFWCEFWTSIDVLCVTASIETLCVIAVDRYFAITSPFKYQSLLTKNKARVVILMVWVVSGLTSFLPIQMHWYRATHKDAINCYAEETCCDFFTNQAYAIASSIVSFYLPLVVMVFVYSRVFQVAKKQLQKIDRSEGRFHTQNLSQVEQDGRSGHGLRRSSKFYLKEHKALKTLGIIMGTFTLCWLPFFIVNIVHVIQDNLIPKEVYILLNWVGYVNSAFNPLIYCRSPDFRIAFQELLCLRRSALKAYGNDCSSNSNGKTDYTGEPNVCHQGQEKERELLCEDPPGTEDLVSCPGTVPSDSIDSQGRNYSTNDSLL
Chain of Beta-1 adrenergic receptor (B0FL73 whole entry): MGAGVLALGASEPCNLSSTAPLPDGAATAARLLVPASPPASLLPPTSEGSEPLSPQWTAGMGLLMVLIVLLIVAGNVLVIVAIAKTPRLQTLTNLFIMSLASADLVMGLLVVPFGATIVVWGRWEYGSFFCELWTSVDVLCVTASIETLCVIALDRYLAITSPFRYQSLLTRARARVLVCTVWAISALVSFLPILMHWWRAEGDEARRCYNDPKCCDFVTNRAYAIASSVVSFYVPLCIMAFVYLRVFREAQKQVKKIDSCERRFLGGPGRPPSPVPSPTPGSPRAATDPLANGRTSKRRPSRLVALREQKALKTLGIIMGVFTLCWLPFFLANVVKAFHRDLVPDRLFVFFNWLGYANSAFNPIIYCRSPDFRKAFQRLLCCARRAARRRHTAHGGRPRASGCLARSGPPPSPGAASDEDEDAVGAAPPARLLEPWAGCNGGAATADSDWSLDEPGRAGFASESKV

Compound: CC(C)=CCOc1ccc(Cl)c2c1CCN(C)CC2
- Kb [1]: 0.076 µM
- Kb [2]: > 3 µM
- Kb [3]: 0.15 µM
- Ki [4]: 0.033 µM
- Ki [5]: 0.033 µM
- Ki [6]: 0.087 µM

Compound: CN1CCc2c(Cl)ccc3oc(Br)c(c23)C1
- Ki [7]: 0.014 µM
- Kb [1]: 0.04 µM
- Kb [2]: > 3 µM
- Kb [3]: > 1 µM
- Ki [4]: 0.072 µM
- Ki [5]: 3.3 µM
- Ki [8]: 0.054 µM
- Ki [9]: 0.028 µM
- Ki [6]: 0.783 µM

Compound: CN1CCc2cccc(Cl)c2CC1
- Ki [7]: 0.016 µM
- Kb [1]: 0.042 µM
- Kb [2]: 0.017 µM
- Kb [3]: 0.6 µM
- Ki [4]: 0.126 µM
- Ki [5]: 0.449 µM
- Ki [8]: 0.0094 µM
- Ki [6]: 0.485 µM

Compound: CCc1sc2ccc(Cl)c3c2c1CN(C)CC3
- Ki [7]: 0.015 µM
- Kb [1]: 0.084 µM
- Kb [2]: > 3 µM
- Kb [3]: 0.056 µM
- Ki [4]: 0.0012 µM
- Ki [5]: 0.058 µM
- Ki [8]: 0.031 µM
- Ki [9]: 0.035 µM
- Ki [6]: 0.015 µM

Compound: C=Cc1sc2ccc(Cl)c3c2c1CN(C)CC3
- Ki [7]: 0.0034 µM
- Kb [1]: 0.029 µM
- Kb [2]: > 3 µM
- Kb [3]: 0.025 µM
- Ki [4]: 0.0016 µM
- Ki [5]: 0.036 µM
- Ki [8]: 0.024 µM
- Ki [9]: 0.021 µM
- Ki [6]: 0.023 µM

Compound: CC1=C(C(N)=O)C(c2ccc([N+](=O)[O-])cc2)C(C(=O)NCCCN2CCC(c3ccccc3)(c3ccccc3)CC2)=C(C)N1 (stereo unspecified)
- Ki [10]: > 0.01 µM

Compound: CNC(=O)C1=C(C)NC(C)=C(C(=O)NCCCN2CCC(c3ccccc3)(c3ccccc3)CC2)C1c1ccc([N+](=O)[O-])cc1 (stereo unspecified)
- Ki [5]: 0.0031 µM
- Ki [10]: > 5 µM

Compound: COC(=O)C1=C(C)NC(C)=C(C(=O)NCCCN2CCC(c3ccccc3)(c3ccccc3)CC2)C1c1cccc([N+](=O)[O-])c1 (stereo unspecified)
- Ki [5]: 0.0004 µM
- Ki [10]: 0.03 µM

- EC50 [11]: 0.436 µM
- EC50 [12]: 0.436 µM
Compound: CNC[C@H](O)c1ccc(O)c(O)c1 (stereo in doubt; (+)) [EPINEPHRINE]

- EC50 [11]: 0.015 µM
- EC50 [12]: 0.015 µM
Compound: CNC[C@H](O)c1ccc(O)c(O)c1 (stereo in doubt; (-)) [EPINEPHRINE]

Compound: c1ccc2c(c1)OCC(C1=NCCN1)O2 (stereo unspecified) [IDAZOXAN]
- Ki [13]: < 0.01 µM
